Values quoted from earlier work in patent US9192579B2, “Sustained release drug delivery devices, methods of use, and methods of manufacturing thereof” (pSivida US, Inc., priority 2000, dated 2015).

Test system: CMV retinitis
Conditions: intravitreal injections of 200 to 400 μg once or twice weekly, AIDS patients

Question: For `Nc1nc(O)c2ncn(COC(CO)CO)c2n1` [GCV, ganciclovir], which “effect on CMV retinitis” value is on record?
Answer: temporary remission
